Test results: patent EP0366451A2, “The use of oxidized polyamines, especially NN'-Bis-(3-propionaldehyde)-1-4-diaminobutane (sperminedialdehyde) as immunosuppressive agents” (ORTHO PHARMACEUTICAL CORPORATION, priority 1988, dated 1990)

Columns and labels:
(Lewis x BN) F1 rats = test: Graft vs. host reaction in rat (popliteal lymph node study); format: in vivo
Method: (LewXBN) rats were injected i.v. daily for 8 days with different doses of spermine dialdehyde. On day 2, BN rat spleen cells were injected subcutaneously into the left foot pads of the (LewxBN)F1 rats. These rats were sacrificed in 7 days and weights of both left and right popliteal lymph nodes were removed. The difference in weight is plotted as a function of spermine dialdehyde concentrations used.
Graft vs. host reaction in rats was measured by popliteal lymph node enlargement induced by reinjection of parental spleen cells into F1 recipients. (Lewis x BN) F1 rats were divided into groups of 10 and given daily IV injections of different doses of the test compound (spermine dialdehyde) or control preparation. Two days after the first injection, they received 9 x 10⁶ spleen cells from a parental Lewis strain (0.3 ml of a […] cell/ml preparation was injected under the skin of the ventral surface of each of the recipient's right hind foot). Injection of test compound and control article continued for 6 more days. On the seventh day, rats were sacrificed by CO₂ treatment. Both left and right politeal lymph nodes were removed and cleaned of any adhering tissue. The extent of enlargement was measured by weighing both left and right lymph nodes and differences between the two were calculated.
Graft vs. host reaction was generated in the form of popliteal lymph node in F1 recipients by subcutaneous injection of parental spleen cells. Spermine aldehyde was administered intravenously starting 2 days before parental spleen cell injection and continued until the day of lymph node measurement. Increase in popliteal lymph node swelling was scored by difference in weight between test (left) and control (right) lymph node. […] This GVH reaction is a typical manifestation of MHC class II reaction involving allogenic T lymphocytes.

C57BL mice = test: In vivo generation of cytotoxic T cells in mice; details: Figure 5
Method: C57BL mice were injected i.p. daily with different doses of spermine dialdehyde. On day 2, they also received 107 DBA spleen cells. Seven days later, animals were sacrificed and percentage of cytotoxic T cells (measured by % specific lipes generated in the spleen was calculated and plotted as a function of concentration of spermine dialdehyde.
In vivo generation of cytotoxic T cells was performed according to the method described by Faanes et al., Clin. Esp. Immunol., Vol. 27 pp. 502-506 (1977). C57BL mice were arranged into groups of 10 and injected IP with different doses of spermine dialdehyde or control preparation. Two days after first injection, they received i.p. injection of 10⁷ DBA spleen cells which were prepared as described previously. Ten days after cell injection, C57 mice were sacrificed by cervical dislocation and cytotoxic T cells generated in the spleen were quantified by measuring the ability of those cells to lyse 51Cr labelled PB15 target cells (a mastocytoma, cells of DBA origin or Con A stimulated DBA spleen blasts). P815 cells or blasts were suspended at 10⁷ cells/ml and incubated with 200 MCi of 51Cr for 1 hour at 37°C. […] After incubation, 100 Ml of supernatant was removed and counted in the gamma counter. The percentage of cytotoxic T cells was calculated: [formula] […]

cytosolic ALDH = test: NAD-linked cytosolic ALDH assay, L1210/CPA cells; format: biochemical, Murine; details: as substrate, L1210/CPA cytosol
Method: Cultured murine leukemic cells and livers (excised from mice immediately after cervical dislocation) were homogenized in 3 volumes of ice-cold 1.15% KCl and 1 mM EDTA. The homogenate was centrifuged at 100,000 g for 45 min and the resulting supernatant was used to measure cytosolic ALDH activity. For particulate ALDH assay, the pellet (and homogenate for total ALDH) was resuspended in homogenizing buffer and treated with 0.25% Triton X-100 for 30 min at 4°C. The solubilized preparations were centrifuged at 48,000 g for 30 min and the supernatants were drawn off for ALDH determinations.
ALDH activity was measured by monitoring the reduction of NAD or NADp for 5-6 min at […] at 37°C in DU70 spectrophotometer (Beckman). The assay mixture contained 50 mM potassium phosphate buffer, pH 7.4, 2.0 mM NAD (or NADP) and 1.0 mM EDTA. The reaction was started by adding the substrate (SDA or other aldehyde) to the prewarmed (5 min at 37°C) assay mixture containing enzyme preparation. Pyrazole (0.1 mM) was added particularly for liver enzyme, to inhibit alcohol dehydrogenase. The apparent Km and maximum velocity (Vmax) values were calculated using a Lineweaver-Burk plot based on the estimation of the slope by regression analysis. Enzyme activity was expressed as mU (nmoles/min) per mg of protein. Protein contents were determined by the Bradford method, using bovine serum albumin as the standard.

splenic T cell = test: Concanavalin A-stimulated splenic T cell proliferation ([3H]-thymidine incorporation); format: cell-based, Mouse
Method: Splenic cells were treated with various concentrations of SDA or an analogue for 30 min. at 37°C. Cells were washed and cultured in the presence of Concanavalin A for 3 days. [³H] Thymidine 0.1µCi/well was added and cells were harvested after 18-24 hrs.
Mouse spleen cells were cultured for 3 days in flat bottom microtiter relates at 10⁵ cells per well in the presence of […] of Con A. 3H-thymidine (0.1 microcurie/well) was added for the last 4-6 hours of the culture period. Cells were harvested as described above.
For [³H]-thymidine incorporation, drug or vehicle treated bone marrow or spleen cells were plated in RPMI-1640, containing 10% fetal bovine serum, 10 µM β-mercaptoethanol, 25 mM HEPES and 2 mM glutamine. Con-A (4 µg/ml and […]) was used as mitogens for bone marrow and spleen cells. Three days later, [³H]-thymidine (0.2 µCi/well) was added and cells were harvested after 12-18 hrs. L1210/CPA and L1210/0 cells (0.1 - 1 x 10⁵ cells/well were plated in RPMI-1640 containing 10% horse serum. [³H]-thymidine was added after 24 hrs and cells were filtered on GF/B filter paper for scintillation counting.

C3H mice = test: Skin graft transplant (Balb/c skin onto C3H mice); format: in vivo
Method: Spermine dialdehyde was administered s.c, right after transplantation and continued throughout the study. Cyclosporin A (CsA) was run along as a positive control.

O=CCCNCCCCNCCC=O [SDA, NN′-Bis-(3-propionaldehyde)-1-4-diaminobutane]
ED (maximum) ((Lewis x BN) F1 rats; Rattus norvegicus, iv, Figure 4, read-out: dose required to achieve maximum suppression of GVH reaction in vivo): 5 mg/kg
minimal effective dose ((Lewis x BN) F1 rats; Rattus norvegicus, intravenously or subcutaneously, read-out: dose effective to suppress graft vs. host reactions): 5 to 10 mg/kg
GVH reaction (popliteal lymph node swelling) ((Lewis x BN) F1 rats; intravenous, daily, Figure 4): significantly suppressed the GVH reaction
ED (maximum) (C57BL mice; Mus musculus, T-cell, ip, read-out: dose that appeared to attain maximum suppression of cytotoxic T cell generation): 10 mg/kg
generation of cytotoxic T cells (C57BL mice; i.p.): suppressed the generation of cytotoxic T cells in a dose related manner
Km (cytosolic ALDH; NAD, ± SEM, 3-4 experiments): 41.6 µM
Specific (activity of ALDH) (cytosolic ALDH; propionaldehyde 1.0 mM): 6.8 ± 1.6 mU/mg Protein
susceptibility of spleen cells to suppression compared with bone marrow cells (splenic T cell; 1 hour incubation, Figure 2): much more susceptible to suppression
effect of addition of DEAB on the potency of SDA (splenic T cell; DEAB (20 µM)): no significant effect
IC50 (splenic T cell; Mus musculus, T-cell, cells treated 30 min at 37°C, washed, cultured with Concanavalin A for 3 days, Figure 8, read-out: IC₅₀): 700 nM
IC100 (splenic T cell; Mus musculus, T-cell, read-out: SDA treatment that abolished Con A-induced murine spleen cell proliferation): 8 to 12 µM
skin graft survival (C3H mice; SDA s.c., all 3 doses, especially 10 mg/kg and 20 mg/kg, Figure 6): prolonged skin graft survival
efficacy in skin graft experiments compared with CsA (C3H mice; mouse, in vivo): more effective than a comparable dose of CsA
